We go through 1 compound from patent publication US8138158B2, “Compositions and methods for therapy for diseases characterized by defective chloride transport” (Children's Hospital & Research Center at Oakland, priority 1997, dated 2012).

Assay [1] concerns CF15 monolayers homozygous for ΔF508 CFTR. Put plainly: Short-circuit current across CF15 monolayers homozygous for ΔF508 CFTR. The class given is cell-based, human. The procedure:
Human airway cell culture. The human submucosal serous gland-like cell line Calu-3, the CF nasal epithelial cell line homozygous for ΔF508 CFTR (CF15) and human tracheal primary cultures (hTE) were cultured as described (Jefferson, D. M., Valentich, J. D., Marini, F. C., Grubman, S. A., Iannuzzi, M. C., Dorkin, H. L., Li, M., Klinger, K. W. & Welsh, M. J. (1990) Am. J. Physiol. 259, L496-L505. Sachs, L. A., Finkbeiner, W. E. & Widdicombe, J. H. (2003) In Vitro Cell Dev. Biol. Anim. 39, 56-62.). Wildtype CFTR-corrected CF15 cells were generated via adenovirus-mediated gene transfer. Growth media were nominally free of ascorbic acid (<10 μm, University Pathology Inc., Salt Lake City, Utah). For transepithelial measurements cells were grown on permeable filter inserts and used after 3 to 10 days.
(§1) Short-circuit current measurement. Calu-3 or CF15 cells were grown as monolayers, mounted in Ussing chambers and short-circuit current (ISC) was recorded as described (Illek, B. & Fischer, H. (1998) Am. J. Physiol. 275, L902-L910). At 20-50 second intervals, transepithelial voltage was clamped from zero to 2 mV and the transepithelial resistance (Rte) was calculated. A serosa-to-mucosa-directed Cl gradient was applied. Serosal Ussing chamber solution contained (in mM): 120 NaCl, 20 NaHCO3, 5 KHCO3, 1.2 NaH2PO4, 5.6 glucose, 2.5 CaCl2, 1.2 MgCl2. In mucosal Ussing chamber solutions, all Cl salts were exchanged for gluconate salts.
The CF15 cell line was used to determine whether ascorbate-stimulated Cl currents were solely mediated by the CFTR Cl conductance. The CF15 cell line is characterized by the absence of functional CFTR in the apical plasma membrane but the presence of other non-CFTR Cl conductances (Jefferson, D. M., Valentich, J. D., Marini, F. C., Grubman, S. A., Iannuzzi, M. C., Dorkin, H. L., Li, M., Klinger, K. W. & Welsh, M. J. (1990) Am. J. Physiol. 259, L496-L505). A concentration of L-ascorbic acid that lay within the upper plateau of the dose response curve (500 μm) was applied and ascorbate-stimulated Cl currents in CF15 vs. wildtype CFTR-corrected CF15 monolayers was compared (FIG. 23A). […] The defective response to L-ascorbic acid was reversed in wildtype CFTR-corrected CF15 epithelia such that ISC responded promptly to L-ascorbic acid (ΔISC=7.5±0.5 μA/cm^2, n=6). The ascorbate-stimulated current was further activated by the cAMP agonist forskolin and total stimulated ISC averaged 12.1±1.1 μA/cm^2 (FIG. 4B). The ascorbate-stimulated Cl current reached 60±15% of the forskolin-stimulated current in CFTR-corrected CF15 monolayers, which was close to the corresponding findings in Calu-3 monolayers (68%, see FIG. 21A). […]
In this example, chloride currents stimulated by L-ascorbate or D-ascorbate were measured in CF15 versus. wildtype CFTR-corrected CF15 monolayers. A concentration of L-ascorbate (1 mM) or D-isoascorbate (300 μm) that lay within the upper plateau of the dose-response curve was applied to cells and the resulting chloride currents stimulated in CF15 versus wildtype CFTR-corrected CF15 monolayers were measured (FIG. 25 A-H). […]
The functional activation of ΔF508 CFTR was determined after correction of the underlying trafficking defect of ΔF508 CFTR using S-Nitrosoglutathione (Zaman, et al., Biochem Biophys Res Commun 284: 65-70, 2001; Snyder, et al., American Journal of Respiratory and Critical Care Medicine 165: 922-6, 2002; Andersson, et al. Biochemical and Biophysical Research Communication 297(3): 552-557, 2002.). […]

For assay [2], the system named is Calu-3 airway epithelia. The assay is described as follows: Short-circuit current (transepithelial Cl secretion) across Calu-3 airway epithelia, Examples 12-13. The class given is cell-based, human. As for the experimental part:
as §1
Vitamin C activation of CFTR-mediated Cl secretion was studied in Calu-3 cells grown as epithelial monolayers (FIG. 21A). Exposure of the apical membrane to maximal concentrations of L-ascorbic acid stimulated transepithelial Cl currents (ISC) in a sustained fashion to 96±11 μA/cm^2 (n=22). Subsequent addition of forskolin further increased ISC to 141±33 μA/cm^2 (n=9, p=0.029). On average, Cl secretion was stimulated by ascorbate to 68% of the currents elicited by forskolin. The Cl channel blocker diphenylcarboxylate (DPC, 4 mM) was added as a measure for the transcellular Cl current decreasing ISC to 30±4 μA/cm^2. When Cl secretion was first stimulated with forskolin (to 106±23 μA/cm^2, n=4) ascorbate had no significant effect on Ise (at 100 μM: ΔICl=−1.5±3.5 μA/cm^2, n=4, not different from zero, one-sample t test). Half-maximal stimulatory constant averaged 36.5±2.9 μm as determined from transepithelial dose-response experiments.
Furthermore, the response to ascorbate in Na-containing medium was blunted in the presence of phloretin, a known inhibitor of the sodium-dependent vitamin C transporters SVCT1 and SVCT2 (Tsukaguchi, H., Tokui, T., Mackenzie, B., Berger, U. V., Chen, X. Z., Wang, Y., Brubaker, R. F. & Hediger, M. A. (1999) Nature 399, 70-75). […] Molecular expression of SVCT1 and SVCT2 transcripts in Calu-3 cells was verified using RT-PCR and DNA sequencing analysis. For comparison, human ciliated tracheal epithelial cultures (hTE) and a nasal cystic fibrosis airway cell line (CF15) were included. […] The recombinantly expressed SVCT2-EGFP fusion protein was targeted exclusively to the apical membrane pole of CF15 epithelia.

Regarding `O=C1O[C@H](C(O)CO)C(O)=C1O` (stereo partly drawn) [L-ascorbic acid, L-xyloascorbic acid], the “transepithelial chloride currents increased on average by” value in assay [1] (CF15 treated with 1 mM SNOG for 5-24 hours, L-ascorbate 1 mM, n=10) is 2.1±0.1. This compound also returned a ΔISC in assay [1] (uncorrected CF15, L-ascorbic acid 500 μm, n=5) of 1.3±0.5 μA/cm^2. For the same compound, the ΔIsc in assay [1] (untreated CF epithelia, L-ascorbate 1 mM, amiloride, n=13) is recorded as 1.1±0.3 μA/cm^2. For the same compound, the “concentrations causing maximal stimulation” value in assay [2] (FIG. 21B) was more than 300 µM. In assay [2] (Homo sapiens, Calu-3, transepithelial dose-response experiments, read-out: Half-maximal stimulatory constant), the EC50 was 36.5 ± 2.9 µM. Also, in assay [2] (apical exposure to maximal concentrations of L-ascorbic acid, n=22), the “transepithelial Cl currents (ISC) stimulated to” value is reported as 96±11 μA/cm^2. The “ΔICl after forskolin prestimulation” value in assay [2] (ascorbate at 100 μM after forskolin, n=4, not different from zero) is −1.5±3.5 μA/cm^2. For the same compound, the “ascorbate-stimulated Cl secretion in absence of extracellular Na” value in assay [2] (no Na on the mucosal side) is recorded as “significantly reduced”. Further, the “Cl secretion stimulated, % of the currents elicited by forskolin” value in assay [2] (on average) was found to be 68%.
